Publication PMC10786919, “Design-rules for stapled peptides with in vivo activity and their application to Mdm2/X antagonists” (Nature Communications, 2024)
≈ marks a conversion by molar mass, not a printed value. Where two headings read alike, the source gives them in different places. Positions of bridges follow the written chain, without caps; N, C: chain ends. Non-standard residues stand in square brackets, D forms with d. Residues, ends and D or L forms follow the SMILES beside them. Lys(N3) = [N-]=[N+]=NCCCC[C@H](N)C(=O)O; R8 = C=CCCCCCC[C@@](C)(N)C(=O)O; Cba = N[C@@H](CC1CCC1)C(=O)O; S5 = C=CCCC[C@](C)(N)C(=O)O; βAla = NCCC(=O)O

What was measured:
[1] = Experimental LogD (partition coefficient); details: for logD: not stated, Partition Coeff LogD
[2] = physchem
[3] = Nanoclick permeability assay
How it was run: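 Azido-peptide permeability was read as loss of NanoBRET signal (donor 450 nm, acceptor 610 nm) after adding NanoBret618-azide at 10 μM final.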

[4] = Solubility assay (kinetic solubility, PBS pH 7); assay type: physicochemical; details: for solubility kinetic: pH 7, aqueous buffer, kinetic from dmso stock, read-out: Solubility
How it was run: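 Quantitation uses an external standard at 100 µM, prepared from 10 mM stock in acetonitrile:methanol:DMSO (10:80:10). Solubility (µM) = (peak area of sample ÷ peak area of standard) × standard concentration.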

[5] = Lactate dehydrogenase (LDH) release assay; assay type: cell-based
How it was run: (§1)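 HCT116 cells stably carrying a p53-responsive β-lactamase reporter, seeded at 8000 cells/well, exposed to compound with 0.5% final DMSO. LDH release read with the CytoTox-ONE membrane integrity kit. Values are geometric means of at least three biological replicates.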

[6] = tested on: HCT116 cells; assay: Lactate dehydrogenase (LDH) release assay; assay type: cell-based
How it was run: as §1

[7] = 0% FBS 4Hr, read-out: LDH: Cytotoxicity assay EC50
[8] = 4 hours, 0% serum, read-out: LDH Cytotoxicity assay EC50
[9] = 10% FBS 4Hr, read-out: LDH: Cytotoxicity assay EC50

Compound | logD [1] | EPSA [2] | cell entry EC50 [3] | solubility kinetic ([4]; pH 7, PBS) | EC50 [5, 7] | EC50 [5, 8] | LDH: Cytotoxicity assay % Effect ([6]; 0% FBS 4Hr) | EC50 [5, 9] | LDH: Cytotoxicity assay % Effect ([6]; 0% FBS 16Hr) | LDH: Cytotoxicity assay % Effect ([6]; 10% FBS 4Hr) | Partition Coeff LogD [1] | Partition Coeff LogD ([1]; experimental) | Solubility [4] | Solubility ([4]; pH 7, PBS) | cell entry EC50 ([3]; Nanoclick permeability assay EC50) | EC50 ([5]; LDH: Cytotoxicity assay EC50)
CC(=O)N[C@@H](CCCCN=[N+]=[N-])C(=O)NCCC(=O)N[C@@H](C)C(=O)N[C@@H](C)C(=O)N[C@@H](Cc1ccccc1)C(=O)N[C@]1(C)CCCCCCC=CCCC[C@@](C)(C(=O)N[C@@H](CO)C(=O)N[C@@H](C)C(=O)N[C@@H](C)C(N)=O)NC(=O)[C@H](CC2CCC2)NC(=O)[C@H](CCC(N)=O)NC(=O)[C@H](C)NC(=O)[C@H](Cc2c[nH]c3ccccc23)NC(=O)[C@H](Cc2ccc(O)cc2)NC(=O)[C@H](CCC(=O)O)NC1=O [MP-957, AZIDE-ATSP-7041 (L1A,T2A)] (Ac-[Lys(N3)][βAla]AAF[R8]EYWAQ[Cba][S5]SAA-NH2; staple 6-13) | 2.69 | 226 A^2 | 125 nM | 101 µM (≈ 192 µg/mL) | 17100 nM | 17100 nM | 25.16% | – | – | – | – | – | – | – | – | –
CC(=O)N[C@@H](CCCCN=[N+]=[N-])C(=O)NCCC(=O)N[C@@H](CC(C)C)C(=O)N[C@H](C(=O)N[C@@H](Cc1ccccc1)C(=O)N[C@]1(C)CCCCCCC=CCCC[C@@](C)(C(=O)N[C@@H](CO)C(=O)N[C@@H](C)C(=O)N[C@@H](C)C(N)=O)NC(=O)[C@H](CC2CCC2)NC(=O)[C@H](CCC(N)=O)NC(=O)[C@H](C)NC(=O)[C@H](Cc2c[nH]c3ccccc23)NC(=O)[C@H](Cc2ccc(O)cc2)NC(=O)[C@H](Cc2c[nH]cn2)NC1=O)[C@@H](C)O [MP-175, AZIDE-ATSP-7041 (E5H)] | 3.42 | 214 A^2 | 316 nM | 2 µM (≈ 3.96 µg/mL) | > 50000 nM | – | 2.645% | > 50000 nM | 7.95% | -1.124% | – | – | – | – | – | –
CC(=O)N[C@@H](CCCCN=[N+]=[N-])C(=O)NCCC(=O)N[C@@H](C)C(=O)N[C@H](C(=O)N[C@@H](Cc1ccccc1)C(=O)N[C@]1(C)CCCCCCC=CCCC[C@@](C)(C(=O)N[C@@H](CO)C(=O)N[C@@H](C)C(=O)N[C@@H](C)C(N)=O)NC(=O)[C@H](CC2CCC2)NC(=O)[C@H](C)NC(=O)[C@H](C)NC(=O)[C@H](Cc2c[nH]c3ccccc23)NC(=O)[C@H](Cc2ccc(O)cc2)NC(=O)[C@H](CCC(=O)O)NC1=O)[C@@H](C)O [MP-959, AZIDE-ATSP-7041 (L1A,Q9A)] (Ac-[Lys(N3)][βAla]ATF[R8]EYWAA[Cba][S5]SAA-NH2; staple 6-13) | 2.79 | 218 A^2 | 126 nM | 106 µM (≈ 197 µg/mL) | 976 nM | 980 nM | 12.11% | – | 5.8% | – | – | – | – | – | – | –
CC(=O)N[C@@H](CCCCN=[N+]=[N-])C(=O)NCCC(=O)N[C@@H](CC(C)C)C(=O)N[C@H](C(=O)N[C@@H](Cc1ccccc1)C(=O)N[C@]1(C)CCCCCCC=CCCC[C@@](C)(C(=O)N[C@@H](C)C(=O)N[C@@H](C)C(=O)N[C@@H](C)C(N)=O)NC(=O)[C@H](CC2CCC2)NC(=O)[C@H](C)NC(=O)[C@H](C)NC(=O)[C@H](Cc2c[nH]c3ccccc23)NC(=O)[C@H](Cc2ccc(O)cc2)NC(=O)[C@H](CCC(=O)O)NC1=O)[C@@H](C)O [MP-8966, AZIDE-ATSP-7041 (Q9A,S12A)] (Ac-[Lys(N3)][βAla]LTF[R8]EYWAA[Cba][S5]AAA-NH2; staple 6-13) | 2.92 | 215 A^2 | 202 nM | 111 µM (≈ 211 µg/mL) | > 50000 nM | – | 5.4% | > 50000 nM | – | 4.079% | – | – | – | – | – | –
CC(=O)N[C@@H](CCCCN=[N+]=[N-])C(=O)NCCC(=O)N[C@@H](C)C(=O)N[C@H](C(=O)N[C@@H](Cc1ccccc1)C(=O)N[C@]1(C)CCCCCCC=CCCC[C@@](C)(C(=O)N[C@@H](CO)C(=O)N[C@@H](C)C(=O)N[C@@H](C)C(N)=O)NC(=O)[C@H](CC2CCC2)NC(=O)[C@H](CCC(N)=O)NC(=O)[C@H](C)NC(=O)[C@H](Cc2c[nH]c3ccccc23)NC(=O)[C@H](Cc2ccc(O)cc2)NC(=O)[C@H](CCC(=O)O)NC1=O)[C@@H](C)O [MP-952, AZIDE-ATSP-7041 (L1A)] | 2.73 | 223 A^2 | 192 nM | 109 µM (≈ 210 µg/mL) | > 50000 nM | – | 11.9% | – | 8.95% | – | – | – | – | – | – | –
CC(=O)N[C@@H](CCCCN=[N+]=[N-])C(=O)NCCC(=O)N[C@@H](CC(C)C)C(=O)N[C@H](C(=O)N[C@@H](Cc1ccccc1)C(=O)N[C@]1(C)CCCCCCC=CCCC[C@@](C)(C(=O)N[C@@H](Cc2c[nH]cn2)C(=O)N[C@@H](C)C(=O)N[C@@H](C)C(N)=O)NC(=O)[C@H](CC2CCC2)NC(=O)[C@H](CCC(N)=O)NC(=O)[C@H](C)NC(=O)[C@H](Cc2c[nH]c3ccccc23)NC(=O)[C@H](Cc2ccc(O)cc2)NC(=O)[C@H](CCC(=O)O)NC1=O)[C@@H](C)O [MP-177, AZIDE-ATSP-7041 (S12H)] (Ac-[Lys(N3)][βAla]LTF[R8]EYWAQ[Cba][S5]HAA-NH2; staple 6-13) | 2.74 | 227 A^2 | 149 nM | 6.5 µM (≈ 13.1 µg/mL) | > 50000 nM | – | 4.985% | – | – | – | – | – | – | – | – | –
CC(=O)N[C@@H](CCCCN=[N+]=[N-])C(=O)NCCC(=O)N[C@@H](CC(C)C)C(=O)N[C@@H](C)C(=O)N[C@@H](Cc1ccccc1)C(=O)N[C@]1(C)CCCCCCC=CCCC[C@@](C)(C(=O)N[C@@H](CO)C(=O)N[C@@H](C)C(=O)N[C@@H](C)C(N)=O)NC(=O)[C@H](CC2CCC2)NC(=O)[C@H](CCC(N)=O)NC(=O)[C@H](C)NC(=O)[C@H](Cc2c[nH]c3ccccc23)NC(=O)[C@H](Cc2ccc(O)cc2)NC(=O)[C@H](C)NC1=O [MP-961, AZIDE-ATSP-7041 (T2A,E5A)] (Ac-[Lys(N3)][βAla]LAF[R8]AYWAQ[Cba][S5]SAA-NH2; staple 6-13) | – | 206 A^2 | 272 nM | – | > 50000 nM | – | 4.443% | – | – | – | Poorly Behaved | P.B. | P.B. | Poorly Behaved | – | –
CC(=O)N[C@@H](CCCCN=[N+]=[N-])C(=O)NCCC(=O)N[C@@H](CC(C)C)C(=O)N[C@H](C(=O)N[C@@H](Cc1ccccc1)C(=O)N[C@]1(C)CCCCCCC=CCCC[C@@](C)(C(=O)N[C@@H](CO)C(=O)N[C@@H](C)C(=O)N[C@@H](C)C(N)=O)NC(=O)[C@H](CC2CCC2)NC(=O)[C@H](C)NC(=O)[C@H](C)NC(=O)[C@H](Cc2c[nH]c3ccccc23)NC(=O)[C@H](Cc2ccc(O)cc2)NC(=O)[C@H](CCC(=O)O)NC1=O)[C@@H](C)O [MP-955, AZIDE-ATSP-7041 (Q9A)] (Ac-[Lys(N3)][βAla]LTF[R8]EYWAA[Cba][S5]SAA-NH2; staple 6-13) | 2.94 | 215 A^2 | 582 nM | 86.5 µM (≈ 165 µg/mL) | > 50000 nM | – | 21.34% | > 50000 nM | – | -4.376% | – | – | – | – | – | –
CC(=O)N[C@@H](CCCCN=[N+]=[N-])C(=O)NCCC(=O)N[C@@H](CC(C)C)C(=O)N[C@H](C(=O)N[C@@H](Cc1ccccc1)C(=O)N[C@]1(C)CCCCCCC=CCCC[C@@](C)(C(=O)N[C@@H](CO)C(=O)N[C@@H](C)C(=O)N[C@@H](C)C(N)=O)NC(=O)[C@H](CC2CCC2)NC(=O)[C@H](CCC(N)=O)NC(=O)[C@H](C)NC(=O)[C@H](Cc2c[nH]c3ccccc23)NC(=O)[C@H](Cc2ccc(O)cc2)NC(=O)[C@H](C)NC1=O)[C@@H](C)O [MP-954, AZIDE-ATSP-7041 (E5A)] (Ac-[Lys(N3)][βAla]LTF[R8]AYWAQ[Cba][S5]SAA-NH2; staple 6-13) | – | 205 A^2 | 217 nM | – | > 50000 nM | – | 9.323% | > 50000 nM | -0.76% | 15.23% | Poorly Behaved | P.B. | P.B. | Poorly Behaved | – | –
CC(=O)N[C@@H](CCCCN=[N+]=[N-])C(=O)NCCC(=O)N[C@@H](CC(C)C)C(=O)N[C@@H](Cc1c[nH]cn1)C(=O)N[C@@H](Cc1ccccc1)C(=O)N[C@]1(C)CCCCCCC=CCCC[C@@](C)(C(=O)N[C@@H](CO)C(=O)N[C@@H](C)C(=O)N[C@@H](C)C(N)=O)NC(=O)[C@H](CC2CCC2)NC(=O)[C@H](CCC(N)=O)NC(=O)[C@H](C)NC(=O)[C@H](Cc2c[nH]c3ccccc23)NC(=O)[C@H](Cc2ccc(O)cc2)NC(=O)[C@H](CCC(=O)O)NC1=O [MP-174, AZIDE-ATSP-7041 (T2H)] | 2.84 | 225 A^2 | 50.6 nM | – | > 50000 nM | – | 2.115% | – | 21.18% | – | – | – | – | – | – | –
CC(=O)N[C@@H](CCCCN=[N+]=[N-])C(=O)NCCC(=O)N[C@@H](CC(C)C)C(=O)N[C@H](C(=O)N[C@@H](Cc1ccccc1)C(=O)N[C@]1(C)CCCCCCC=CCCC[C@@](C)(C(=O)N[C@@H](CO)C(=O)N[C@@H](C)C(=O)N[C@@H](CC(C)C)C(N)=O)NC(=O)[C@H](CC2CCC2)NC(=O)[C@H](CCC(N)=O)NC(=O)[C@H](C)NC(=O)[C@H](Cc2c[nH]c3ccccc23)NC(=O)[C@H](Cc2c[nH]c3ccccc23)NC(=O)[C@H](Cc2c[nH]c3ccccc23)NC1=O)[C@@H](C)O [MP-544] (Ac-[Lys(N3)][βAla]LTF[R8]WWWAQ[Cba][S5]SAL-NH2; staple 6-13) | – | 227 A^2 | – | – | – | – | – | – | – | – | Poorly Behaved | – | – | Poorly Behaved | 124 nM | > 50600 nM
